Results published in the NIST ThermoML archive (doi:10.1016/j.jct.2012.11.020).

Assay: wn = mass fraction of the nth substance listed
Settings: 298.15 K, 100 kPa, Liquid, Alternating current cell with electrodes

C1CC[NH2+]C1.O=[N+]([O-])[O-] [pyrrolidinium nitrate] + CC1COC(=O)O1
Settings | electrical conductivity [S/m]
w1 = 0.1266 | 0.874
w1 = 0.1348 | 0.927
w1 = 0.1441 | 0.989
w1 = 0.1543 | 1.06
w1 = 0.1646 | 1.12
w1 = 0.1788 | 1.24
w1 = 0.1948 | 1.32
w1 = 0.2149 | 1.45
w1 = 0.2396 | 1.62
w1 = 0.2529 | 1.7
w1 = 0.2692 | 1.94
w1 = 0.2862 | 2.05
w1 = 0.3073 | 2.2
w1 = 0.3274 | 2.32
w1 = 0.3479 | 2.46
w1 = 0.3768 | 2.63
w1 = 0.3915 | 2.71
w1 = 0.4212 | 2.86
w1 = 0.4476 | 3.05
w1 = 0.4916 | 3.21
w1 = 0.5453 | 3.46
w1 = 0.5834 | 3.62
w1 = 0.6211 | 3.74
w1 = 0.6897 | 3.92
w1 = 0.7407 | 4.12
w1 = 0.8065 | 4.28
w1 = 0.8913 | 4.47
w1 = 1 | 4.22
